Patent publication US8802597B2, “Herbicidal pyrimidines” (E I du Pont de Nemours and Company, priority 2003, dated 2014)
Like-named read-outs stand apart in the source and are kept apart here.

Key:
Assay type in all cases: in vivo
[1] = test system: Surinam grass (Brachiaria decumbens); assay: Test B pre/postemergence; conditions: Urochloa decumbens; for pest or weed control at 125 g/ha: 125 g ai/ha; for pest or weed control at 500 g/ha: 500 g ai/ha
Procedure, shortened: (§1)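 Following sowing, compounds in a surfactant-bearing non-phytotoxic solvent were applied preemergence; emerged plants 2 to 18 cm high got postemergence treatment concurrently. Evaluation: 13 to 15 days later, greenhouse, 0–100 visual scale.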

[2] = test system: barnyardgrass (Echinochloa crus-galli); assay: Test B pre/postemergence; conditions: Echinochloa crus-galli; for pest or weed control at 125 g/ha: 125 g ai/ha; for pest or weed control at 500 g/ha: 500 g ai/ha
Procedure, shortened: as §1

[3] = test system: cocklebur (Xanthium strumarium); assay: Test B pre/postemergence; conditions: Xanthium strumarium; for pest or weed control at 125 g/ha: 125 g ai/ha; for pest or weed control at 500 g/ha: 500 g ai/ha
Procedure, shortened: as §1

[4] = test system: corn (Zea mays); assay: Test B pre/postemergence; conditions: Zea mays
Procedure, shortened: as §1

[5] = test system: crabgrass (Digitaria sanguinalis); assay: Test B pre/postemergence; conditions: Digitaria sanguinalis; for pest or weed control at 125 g/ha: 125 g ai/ha; for pest or weed control at 500 g/ha: 500 g ai/ha
Procedure, shortened: as §1

[6] = test system: giant foxtail (Setaria faberii); assay: Test B pre/postemergence; conditions: Setaria faberi; for pest or weed control at 125 g/ha: 125 g ai/ha; for pest or weed control at 500 g/ha: 500 g ai/ha
Procedure, shortened: as §1

[7] = test system: lambsquarters (Chenopodium album); assay: Test B pre/postemergence; conditions: Chenopodium album; for pest or weed control at 125 g/ha: 125 g ai/ha; for pest or weed control at 500 g/ha: 500 g ai/ha
Procedure, shortened: as §1

[8] = test system: morningglory (Ipomoea coccinea); assay: Test B pre/postemergence; conditions: Ipomoea; for pest or weed control at 125 g/ha: 125 g ai/ha; for pest or weed control at 500 g/ha: 500 g ai/ha
Procedure, shortened: as §1

[9] = test system: pigweed (Amaranthus retroflexus); assay: Test B pre/postemergence; conditions: Amaranthus retroflexus; for pest or weed control at 125 g/ha: 125 g ai/ha; for pest or weed control at 500 g/ha: 500 g ai/ha
Procedure, shortened: as §1

[10] = test system: velvetleaf (Abutilon theophrasti); assay: Test B pre/postemergence; conditions: Abutilon theophrasti; for pest or weed control at 125 g/ha: 125 g ai/ha; for pest or weed control at 500 g/ha: 500 g ai/ha
Procedure, shortened: as §1

[11] = test system: wheat (Triticum aestivum); assay: Test B pre/postemergence; conditions: Triticum aestivum; for plant injury at 125 g/ha: 125 g ai/ha; for plant injury at 500 g/ha: 500 g ai/ha
Procedure, shortened: as §1

[12] = test system: blackgrass (Alopecurus myosuroides); assay: Test B postemergence; conditions: Alopecurus myosuroides, post-emergence
Procedure, shortened: as §1

[13] = test system: wild oat (Avena fatua); assay: Test B postemergence; conditions: Avena fatua, post-emergence
Procedure, shortened: as §1

[14] = test system: barnyardgrass (Echinochloa crus-galli); assay: Test B flooded paddy test; conditions: Echinochloa crus-galli, Flood, 1000 g ai/ha; scale 0 (no effect) to 100 (complete control); read-out: Plant response rating, Barnyardgrass
Procedure, shortened: (§2)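 Rice, umbrella sedge, duck salad and barnyardgrass grown to 2-leaf stage under flooded paddy conditions and treated with formulated test chemicals. Kept in greenhouse 13–15 days, then visually rated against untreated controls on a 0–100 scale (0 no effect, 100 complete control).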

[15] = test system: duck salad (Heteranthera limosa); assay: Test B flooded paddy test; conditions: Heteranthera limosa, Flood, 1000 g ai/ha; scale 0 to 100; read-out: Plant response rating, Ducksalad
Procedure, shortened: as §2

[16] = test system: rice (Oryza sativa); assay: Test B flooded paddy test; conditions: Oryza sativa, Flood, 1000 g ai/ha; scale 0 to 100; read-out: Plant response rating, Rice
Procedure, shortened: as §2

[17] = test system: umbrella sedge (Cyperus difformis); assay: Test B flooded paddy test; conditions: Cyperus difformis, Flood, 1000 g ai/ha; scale 0 to 100; read-out: Plant response rating, Sedge, Umbrella
Procedure, shortened: as §2

Compound Nc1nc(C2CC2)nc(C=O)c1F [Compound 24] has a pest or weed control at 125 g/ha ([1]; post-emergence, Postemergence, scale 0 to 100 (0 no effect, 100 complete control), read-out: Surinam Grass plant response rating) of 0%, a pest or weed control at 500 g/ha ([1]; post-emergence, Postemergence, scale 0 to 100, read-out: Plant response rating, Surinam Grass) of 10% and a pest or weed control at 125 g/ha ([1]; pre-emergence, Preemergence, scale 0 to 100 (0 no effect, 100 complete control), read-out: Plant response rating, Surinam Grass) of 10%. It also gave a pest or weed control at 500 g/ha ([1]; pre-emergence, Preemergence, scale 0 to 100 (0 no effect, 100 complete control), read-out: Surinam Grass plant response rating) of 50%, a pest or weed control at 125 g/ha ([2]; post-emergence, Postemergence, scale 0 to 100 (0 no effect, 100 complete control), read-out: Barnyardgrass plant response rating) of 0% and a pest or weed control at 500 g/ha ([2]; post-emergence, Postemergence, scale 0 to 100, read-out: Plant response rating, Barnyardgrass) of 10%. The pest or weed control at 125 g/ha ([2]; pre-emergence, Preemergence, scale 0 to 100 (0 no effect, 100 complete control), read-out: Plant response rating, Barnyardgrass) was 0%, the pest or weed control at 500 g/ha ([2]; pre-emergence, Preemergence, scale 0 to 100 (0 no effect, 100 complete control), read-out: Barnyardgrass plant response rating) was 20% and the pest or weed control at 125 g/ha ([3]; post-emergence, Postemergence, scale 0 to 100 (0 no effect, 100 complete control), read-out: Cocklebur plant response rating) was 50%. It also gave a pest or weed control at 500 g/ha ([3]; post-emergence, Postemergence, scale 0 to 100, read-out: Plant response rating, Cocklebur) of 70%, a pest or weed control at 125 g/ha ([3]; pre-emergence, Preemergence, scale 0 to 100 (0 no effect, 100 complete control), read-out: Plant response rating, Cocklebur) of 80% and a pest or weed control at 500 g/ha ([3]; pre-emergence, Preemergence, scale 0 to 100 (0 no effect, 100 complete control), read-out: Cocklebur plant response rating) of 90%. The plant injury at 125 g/ha ([4]; post-emergence, Postemergence, 125 g ai/ha, scale 0 to 100 (0 no effect, 100 complete control), read-out: Corn plant response rating) was 0%, the Corn plant response rating (crop injury, 0 = no effect, 100 = complete kill) at 500 g/ha ([4]; post-emergence, Postemergence, 500 g ai/ha, scale 0 to 100) was 10% and the plant injury at 500 g/ha ([4]; pre-emergence, Preemergence, 500 g ai/ha, scale 0 to 100 (0 no effect, 100 complete control), read-out: Corn plant response rating) was 0%. It also gave a pest or weed control at 125 g/ha ([5]; post-emergence, Postemergence, scale 0 to 100 (0 no effect, 100 complete control), read-out: Crabgrass plant response rating) of 20%, a pest or weed control at 500 g/ha ([5]; post-emergence, Postemergence, scale 0 to 100, read-out: Plant response rating, Crabgrass) of 40% and a pest or weed control at 125 g/ha ([5]; pre-emergence, Preemergence, scale 0 to 100 (0 no effect, 100 complete control), read-out: Plant response rating, Crabgrass) of 60%. The pest or weed control at 500 g/ha ([5]; pre-emergence, Preemergence, scale 0 to 100 (0 no effect, 100 complete control), read-out: Crabgrass plant response rating) was 80%, the pest or weed control at 125 g/ha ([6]; post-emergence, Postemergence, scale 0 to 100 (0 no effect, 100 complete control), read-out: Foxtail, Giant plant response rating) was 20% and the pest or weed control at 500 g/ha ([6]; post-emergence, Postemergence, scale 0 to 100, read-out: Plant response rating, Foxtail, Giant) was 30%. It also gave a pest or weed control at 125 g/ha ([6]; pre-emergence, Preemergence, scale 0 to 100 (0 no effect, 100 complete control), read-out: Plant response rating, Foxtail, Giant) of 10%, a pest or weed control at 500 g/ha ([6]; pre-emergence, Preemergence, scale 0 to 100 (0 no effect, 100 complete control), read-out: Foxtail, Giant plant response rating) of 60% and a pest or weed control at 125 g/ha ([7]; post-emergence, Postemergence, scale 0 to 100 (0 no effect, 100 complete control), read-out: Lambsquarters plant response rating) of 70%. The pest or weed control at 500 g/ha ([7]; post-emergence, Postemergence, scale 0 to 100, read-out: Plant response rating, Lambsquarters) was 80%, the pest or weed control at 125 g/ha ([7]; pre-emergence, Preemergence, scale 0 to 100 (0 no effect, 100 complete control), read-out: Plant response rating, Lambsquarters) was 70% and the pest or weed control at 500 g/ha ([7]; pre-emergence, Preemergence, scale 0 to 100 (0 no effect, 100 complete control), read-out: Lambsquarters plant response rating) was 90%. It also gave a pest or weed control at 125 g/ha ([8]; post-emergence, Postemergence, scale 0 to 100 (0 no effect, 100 complete control), read-out: Morningglory plant response rating) of 60%, a pest or weed control at 500 g/ha ([8]; post-emergence, Postemergence, scale 0 to 100, read-out: Plant response rating, Morningglory) of 90% and a pest or weed control at 125 g/ha ([8]; pre-emergence, Preemergence, scale 0 to 100 (0 no effect, 100 complete control), read-out: Plant response rating, Morningglory) of 50%. The pest or weed control at 500 g/ha ([8]; pre-emergence, Preemergence, scale 0 to 100 (0 no effect, 100 complete control), read-out: Morningglory plant response rating) was 90%, the pest or weed control at 125 g/ha ([9]; post-emergence, Postemergence, scale 0 to 100 (0 no effect, 100 complete control), read-out: Pigweed plant response rating) was 70% and the pest or weed control at 500 g/ha ([9]; post-emergence, Postemergence, scale 0 to 100, read-out: Plant response rating, Pigweed) was 80%. For the same compound, the pest or weed control at 125 g/ha ([9]; pre-emergence, Preemergence, scale 0 to 100 (0 no effect, 100 complete control), read-out: Plant response rating, Pigweed) was 80%, the pest or weed control at 500 g/ha ([9]; pre-emergence, Preemergence, scale 0 to 100 (0 no effect, 100 complete control), read-out: Pigweed plant response rating) was 90% and the pest or weed control at 125 g/ha ([10]; post-emergence, Postemergence, scale 0 to 100 (0 no effect, 100 complete control), read-out: Velvetleaf plant response rating) was 40%. For the same compound, the pest or weed control at 500 g/ha ([10]; post-emergence, Postemergence, scale 0 to 100, read-out: Plant response rating, Velvetleaf) was 50%, the pest or weed control at 125 g/ha ([10]; pre-emergence, Preemergence, scale 0 to 100 (0 no effect, 100 complete control), read-out: Plant response rating, Velvetleaf) was 50% and the pest or weed control at 500 g/ha ([10]; pre-emergence, Preemergence, scale 0 to 100 (0 no effect, 100 complete control), read-out: Velvetleaf plant response rating) was 80%. It also gave a plant injury at 125 g/ha ([11]; post-emergence, Postemergence, scale 0 to 100 (0 no effect, 100 complete control), read-out: Wheat plant response rating) of 0%, a plant injury at 500 g/ha ([11]; post-emergence, Postemergence, scale 0 to 100, read-out: Plant response rating, Wheat) of 0% and a plant injury at 125 g/ha ([11]; pre-emergence, Preemergence, scale 0 to 100 (0 no effect, 100 complete control), read-out: Plant response rating, Wheat) of 30%. For the same compound, the plant injury at 500 g/ha ([11]; pre-emergence, Preemergence, scale 0 to 100 (0 no effect, 100 complete control), read-out: Wheat plant response rating) was 70%, the pest or weed control at 125 g/ha ([12]; 125 g ai/ha, scale 0 to 100 (0 no effect, 100 complete control), read-out: Blackgrass plant response rating) was 0% and the pest or weed control at 500 g/ha ([12]; 500 g ai/ha, scale 0 to 100, read-out: Plant response rating, Blackgrass) was 10%. The pest or weed control at 125 g/ha ([13]; 125 g ai/ha, scale 0 to 100 (0 no effect, 100 complete control), read-out: Oat, Wild plant response rating) was 0%, the pest or weed control at 500 g/ha ([13]; 500 g ai/ha, scale 0 to 100, read-out: Plant response rating, Oat, Wild) was 0% and the pest or weed control at 1000 g/ha [14] was 0%. It also gave a pest or weed control at 1000 g/ha [15] of 0%, a plant injury at 1000 g/ha [16] of 10% and a pest or weed control at 1000 g/ha [17] of 20%.
